Data taken from patent US7135466B2 (Kirin Beer Kabushiki Kaisha, priority 1999, dated 2006).

Legend:
[1] = biological target: T1, c-kit (Homo sapiens, UniProt P10721); assay: Inhibitory activity against c-kit autophosphorylation (MO7e cells, h-SCF); assay type: cell-based; settings: for IC50: MO7e cells, h-SCF 50 ng/ml, read-out: c-kit IC50; for inhibition at 1 µM: Mo7e, figure in parentheses in −( ), at 1000 nM
T1 construct: MO7e (human megakaryocytic leukemia cell line) which had been arrested for 20 hr; endogenous in cells; host or cells: MO7e human megakaryocytic leukemia cell line
T1 sequence (P10721 26-976): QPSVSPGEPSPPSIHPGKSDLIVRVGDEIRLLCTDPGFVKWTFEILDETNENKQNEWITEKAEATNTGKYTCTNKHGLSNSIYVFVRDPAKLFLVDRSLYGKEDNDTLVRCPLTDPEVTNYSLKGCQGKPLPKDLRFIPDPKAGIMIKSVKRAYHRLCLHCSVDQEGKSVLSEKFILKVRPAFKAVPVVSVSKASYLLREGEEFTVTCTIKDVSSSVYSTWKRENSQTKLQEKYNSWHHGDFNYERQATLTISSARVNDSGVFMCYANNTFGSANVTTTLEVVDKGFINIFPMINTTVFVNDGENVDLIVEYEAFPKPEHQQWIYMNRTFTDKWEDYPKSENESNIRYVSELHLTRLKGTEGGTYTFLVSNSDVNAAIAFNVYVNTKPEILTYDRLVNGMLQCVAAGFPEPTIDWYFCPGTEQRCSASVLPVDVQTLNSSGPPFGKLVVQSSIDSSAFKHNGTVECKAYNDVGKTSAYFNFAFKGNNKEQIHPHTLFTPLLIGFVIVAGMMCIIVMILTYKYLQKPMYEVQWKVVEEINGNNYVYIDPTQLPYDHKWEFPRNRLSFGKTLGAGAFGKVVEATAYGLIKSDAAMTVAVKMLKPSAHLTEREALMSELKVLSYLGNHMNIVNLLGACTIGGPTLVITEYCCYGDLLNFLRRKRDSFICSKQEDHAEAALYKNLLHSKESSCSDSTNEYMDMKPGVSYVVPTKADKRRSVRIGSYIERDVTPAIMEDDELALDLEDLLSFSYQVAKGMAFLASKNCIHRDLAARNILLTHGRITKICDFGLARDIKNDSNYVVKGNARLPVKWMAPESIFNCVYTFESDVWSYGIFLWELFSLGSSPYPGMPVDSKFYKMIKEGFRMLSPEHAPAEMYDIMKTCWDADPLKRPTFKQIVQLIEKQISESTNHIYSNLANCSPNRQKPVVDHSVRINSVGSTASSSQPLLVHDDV
Method in brief: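 MO7e cells, arrested for 20 hr, were pretreated with test compound in DMSO for 1 hr and then stimulated with 50 ng/ml h-SCF for 5 min before lysis. Lysates were captured on immobilized anti-phosphotyrosine PY-20, probed with anti-c-kit antibody and HRP anti-rabbit IgG, and read colorimetrically at 450 nm.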

[2] = biological target: T2, PDGF-Ra (Homo sapiens, UniProt P16234); assay: Inhibitory activity against PDGF-Ra phosphorylation by PDGF-AA stimulation using G292; assay type: cell-based; settings: for IC50: Pharmacological Test Example 1, > means inhibition at indicated concentration not more than 50%, < and << not less than 50%, read-out: PDGF (E) IC50
T2 construct: host or cells: G-292 human osteosarcoma cells
T2 sequence (P16234 24-1089): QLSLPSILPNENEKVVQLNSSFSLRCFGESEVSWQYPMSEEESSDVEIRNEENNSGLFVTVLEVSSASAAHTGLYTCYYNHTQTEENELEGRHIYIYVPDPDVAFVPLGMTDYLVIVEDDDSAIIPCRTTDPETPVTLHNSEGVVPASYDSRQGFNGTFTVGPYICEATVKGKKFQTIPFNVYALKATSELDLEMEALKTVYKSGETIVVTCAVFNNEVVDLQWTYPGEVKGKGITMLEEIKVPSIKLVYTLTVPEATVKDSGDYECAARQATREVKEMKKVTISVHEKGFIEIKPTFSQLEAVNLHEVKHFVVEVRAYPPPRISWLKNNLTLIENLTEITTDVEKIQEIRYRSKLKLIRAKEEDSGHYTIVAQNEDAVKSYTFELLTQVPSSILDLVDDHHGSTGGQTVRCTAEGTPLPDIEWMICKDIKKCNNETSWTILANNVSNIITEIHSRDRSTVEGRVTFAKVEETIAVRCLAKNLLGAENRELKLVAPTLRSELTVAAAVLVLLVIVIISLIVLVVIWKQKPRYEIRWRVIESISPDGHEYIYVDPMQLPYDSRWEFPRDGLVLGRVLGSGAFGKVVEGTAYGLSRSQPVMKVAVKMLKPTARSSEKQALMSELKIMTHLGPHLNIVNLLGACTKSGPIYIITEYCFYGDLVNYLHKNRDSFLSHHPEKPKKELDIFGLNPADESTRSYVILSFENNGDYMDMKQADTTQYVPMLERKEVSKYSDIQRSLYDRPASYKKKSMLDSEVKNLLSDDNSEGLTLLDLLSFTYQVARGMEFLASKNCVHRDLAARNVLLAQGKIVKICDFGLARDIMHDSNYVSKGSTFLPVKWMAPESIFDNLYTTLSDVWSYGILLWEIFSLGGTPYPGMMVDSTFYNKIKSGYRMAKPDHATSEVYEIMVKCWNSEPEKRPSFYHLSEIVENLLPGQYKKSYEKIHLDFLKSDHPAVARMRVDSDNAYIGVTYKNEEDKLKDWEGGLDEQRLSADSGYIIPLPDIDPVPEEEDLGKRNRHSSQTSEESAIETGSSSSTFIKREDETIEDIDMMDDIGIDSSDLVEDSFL
Method in brief: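 Phospho-PDGF-Ra ELISA: capture with PY-20 antiphosphotyrosine, detection with anti-PDGF-Ra and peroxidase secondary, read at 450 nm. Lysates came from G-292 osteosarcoma cells starved in 0.1% FBS, compound-treated 1 hr at 37° C, and stimulated with 50 ng/ml PDGF-AA for 5 min.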

IC50 [1] [nM] | IC50 [2] [nM] | inhibition at 1 µM [1] [%] | inhibition at 0.1 µM ([2]; G292, figure in parentheses in >100( ), at 100 nM, read-out: PDGF (E) inhibition (%) at 100 nM) [%] | Compound
270 | 14 | – | – | COc1cccc(OCCCOC(=O)Nc2ccc(Oc3ncnc4cc(OC)c(OC)cc34)cc2Cl)c1 [Example 51, 3-(3-Methoxyphenoxy)propyl N-{2-chloro-4-[(6,7-dimethoxy-4-quinazolinyl)oxy]phenyl}carbamate]
273 | < 10 | – | – | COc1cccc(C(C)OC(=O)Nc2ccc(Oc3ccnc4cc(OC)c(OC)cc34)cc2)c1 (centres unmarked) [Example 52, 1-(3-Methoxyphenyl)ethyl N-{4-[(6,7-dimethoxy-4-quinolyl)oxy]phenyl}carbamate]
480 | < 10 | – | – | COc1cccc(C(C)OC(=O)Nc2ccc(Oc3ccnc4cc(OC)c(OC)cc34)c(C)c2C)c1 (centres unmarked) [Example 53, 1-(3-Methoxyphenyl)ethyl N-{4-[(6,7-dimethoxy-4-quinolyl)oxy]-2,3-dimethylphenyl}carbamate]
473 | 15 | – | – | COc1cccc(C(C)OC(=O)Nc2cc(C)c(Oc3ccnc4cc(OC)c(OC)cc34)cc2C)c1 (centres unmarked) [Example 54, 1-(3-Methoxyphenyl)ethyl N-{4-[(6,7-dimethoxy-4-quinolyl)oxy]-2,5-dimethylphenyl}carbamate]
288 | < 10 | – | – | COc1cccc(C(C)OC(=O)Nc2ccc(Oc3ncnc4cc(OC)c(OC)cc34)cc2)c1 (centres unmarked) [Example 55, 1-(3-Methoxyphenyl)ethyl N-{4-[(6,7-dimethoxy-4-quinazolinyl)oxy]phenyl}carbamate]
774 | 11 | – | – | COc1cccc(C(C)OC(=O)Nc2ccc(Oc3ncnc4cc(OC)c(OC)cc34)cc2Cl)c1 (centres unmarked) [Example 56, 1-(3-Methoxyphenyl)ethyl N-{2-chloro-4-[(6,7-dimethoxy-4-quinazolinyl)oxy]phenyl}carbamate]
393 | 11 | – | – | COc1cc2nccc(Oc3ccc(NC(=O)OCc4ccc(C(C)(C)C)cc4)cc3)c2cc1OC [Example 57, 4-(Tert-butyl)benzyl N-{4-[(6,7-dimethoxy-4-quinolyl)oxy]phenyl}carbamate]
499 | 12 | – | – | COc1cc2nccc(Oc3ccc(NC(=O)OCc4ccc(C(C)(C)C)cc4)c(C)c3C)c2cc1OC [Example 58, 4-(Tert-butyl)benzyl N-{4-[(6,7-dimethoxy-4-quinolyl)oxy]-2,3-dimethylphenyl}carbamate]
– | 57 | 33 | – | COc1cc2nccc(Oc3cc(C)c(NC(=O)OCc4ccc(C(C)(C)C)cc4)cc3C)c2cc1OC [Example 59, 4-(Tert-butyl)benzyl N-{4-[(6,7-dimethoxy-4-quinolyl)oxy]-2,5-dimethylphenyl}carbamate]
261 | < 10 | – | – | COc1cc2ncnc(Oc3ccc(NC(=O)OCc4ccc(C(C)(C)C)cc4)cc3)c2cc1OC [Example 60, 4-(Tert-butyl)benzyl N-{4-[(6,7-dimethoxy-4-quinazolinyl)oxy]phenyl}carbamate]
– | 10 | 32 | – | COc1cc2ncnc(Oc3ccc(NC(=O)OCc4ccc(C(C)(C)C)cc4)c(Cl)c3)c2cc1OC [Example 61, 4-(Tert-butyl)benzyl N-{2-chloro-4-[(6,7-dimethoxy-4-quinazolinyl)oxy]phenyl}carbamate]
70 | 13 | – | – | COc1ccc(COC(=O)Nc2ccc(Oc3ccnc4cc(OC)c(OC)cc34)cc2)cc1OC [Example 62, 3,4-Dimethoxybenzyl N-{4-[(6,7-dimethoxy-4-quinolyl)oxy]phenyl}carbamate]
211 | 16 | – | – | COc1ccc(COC(=O)Nc2ccc(Oc3ccnc4cc(OC)c(OC)cc34)c(C)c2C)cc1OC [Example 63, 3,4-Dimethoxybenzyl N-{4-[(6,7-dimethoxy-4-quinolyl)oxy]-2,3-dimethylphenyl}carbamate]
429 | 90 | – | – | COc1ccc(COC(=O)Nc2cc(C)c(Oc3ccnc4cc(OC)c(OC)cc34)cc2C)cc1OC [Example 64, 3,4-Dimethoxybenzyl N-{4-[(6,7-dimethoxy-4-quinolyl)oxy]-2,5-dimethylphenyl}carbamate]
103 | < 10 | – | – | COc1ccc(COC(=O)Nc2ccc(Oc3ncnc4cc(OC)c(OC)cc34)cc2)cc1OC [Example 65, 3,4-Dimethoxybenzyl N-{4-[(6,7-dimethoxy-4-quinazolinyl)oxy]phenyl}carbamate]
353 | 50 | – | – | COc1ccc(COC(=O)Nc2ccc(Oc3ncnc4cc(OC)c(OC)cc34)cc2Cl)cc1OC [Example 66, 3,4-Dimethoxybenzyl N-{2-chloro-4-[(6,7-dimethoxy-4-quinazolinyl)oxy]phenyl}carbamate]

IC50 [1] [nM] | IC50 [2] [nM] | inhibition at 1 µM [1] [%] | inhibition at 0.1 µM ([2]; G292, figure in parentheses in >100( ), at 100 nM, read-out: PDGF (E) inhibition (%) at 100 nM) [%] | Compound
342 | < 10 | – | – | COc1ccc(OC)c(COC(=O)Nc2ccc(Oc3ccnc4cc(OC)c(OC)cc34)cc2)c1 [Example 67, 2,5-Dimethoxybenzyl N-{4-[(6,7-dimethoxy-4-quinolyl)oxy]phenyl}carbamate]
294 | 13 | – | – | COc1ccc(OC)c(COC(=O)Nc2ccc(Oc3ccnc4cc(OC)c(OC)cc34)c(C)c2C)c1 [Example 68, 2,5-Dimethoxybenzyl N-{4-[(6,7-dimethoxy-4-quinolyl)oxy]-2,3-dimethylphenyl}carbamate]
755 | 53 | – | – | COc1ccc(OC)c(COC(=O)Nc2cc(C)c(Oc3ccnc4cc(OC)c(OC)cc34)cc2C)c1 [Example 69, 2,5-Dimethoxybenzyl N-{4-[(6,7-dimethoxy-4-quinolyl)oxy]-2,5-dimethylphenyl}carbamate]
451 | < 10 | – | – | COc1ccc(OC)c(COC(=O)Nc2ccc(Oc3ncnc4cc(OC)c(OC)cc34)cc2)c1 [Example 70, 2,5-Dimethoxybenzyl N-{4-[(6,7-dimethoxy-4-quinazolinyl)oxy]phenyl}carbamate]
– | 38 | 34 | – | COc1ccc(OC)c(COC(=O)Nc2ccc(Oc3ncnc4cc(OC)c(OC)cc34)cc2Cl)c1 [Example 71, 2,5-Dimethoxybenzyl N-{2-chloro-4-[(6,7-dimethoxy-4-quinazolinyl)oxy]phenyl}carbamate]
387 | 36 | – | – | COc1cc2nccc(Oc3ccc(NC(=O)OCCCSc4ccc(C(C)(C)C)cc4)cc3)c2cc1OC [Example 72]
235 | 28 | – | – | COc1cc2nccc(Oc3ccc(NC(=O)OCCCSc4ccc(C(C)(C)C)cc4)c(C)c3C)c2cc1OC [Example 73, 3-{[4-(Tert-butyl)phenyl]sulfanyl}-propyl N-{4-[(6,7-dimethoxy-4-quinolyl)oxy]-2,3-dimethylphenyl}carbamate]
– | > 100 | 14 | 37 | COc1cc2ncnc(Oc3ccc(NC(=O)OCCCSc4ccc(C(C)(C)C)cc4)c(Cl)c3)c2cc1OC [Example 76, 3-{[4-(Tert-butyl)phenyl]sulfanyl}propyl N-{2-chloro-4-[(6,7-dimethoxy-4-quinazolinyl)oxy]phenyl}carbamate]
99 | < 10 | – | – | COc1cc2nccc(Oc3ccc(NC(=O)OCCCSc4ccc(Cl)cc4C)cc3)c2cc1OC [Example 77, 3-[(4-Chloro-2-methylphenyl)sulfanyl]propyl N-{4-[(6,7-dimethoxy-4-quinolyl)oxy]phenyl}carbamate]
129 | 16 | – | – | COc1cc2nccc(Oc3ccc(NC(=O)OCCCSc4ccc(Cl)cc4C)c(C)c3C)c2cc1OC [Example 78, 3-[(4-Chloro-2-methylphenyl)sulfanyl]propyl N-{4-[(6,7-dimethoxy-4-quinolyl)oxy]-2,3-dimethylphenyl}carbamate]
123 | 18 | – | – | COc1cc2nccc(Oc3cc(C)c(NC(=O)OCCCSc4ccc(Cl)cc4C)cc3C)c2cc1OC [Example 79, 3-[(4-Chloro-2-methylphenyl)sulfanyl]propyl N-{4-[(6,7-dimethoxy-4-quinolyl)oxy]-2,5-dimethylphenyl}carbamate]
137 | 12 | – | – | COc1cc2ncnc(Oc3ccc(NC(=O)OCCCSc4ccc(Cl)cc4C)cc3)c2cc1OC [Example 80]
408 | 12 | – | – | COc1cc2ncnc(Oc3ccc(NC(=O)OCCCSc4ccc(Cl)cc4C)c(Cl)c3)c2cc1OC [Example 81, 3-[(4-Chloro-2-methylphenyl)sulfanyl]propyl N-{2-chloro-4-[(6,7-dimethoxy-4-quinazolinyl)oxy]phenyl}carbamate]
176 | 10 | – | – | COc1cc2nccc(Oc3ccc(NC(=O)OCCc4cccc(C(F)(F)F)c4)cc3)c2cc1OC [Example 82, 3-(Trifluoromethyl)phenethyl N-{4-[(6,7-dimethoxy-4-quinolyl)oxy]phenyl}carbamate]
253 | 16 | – | – | COc1cc2nccc(Oc3ccc(NC(=O)OCCc4cccc(C(F)(F)F)c4)c(C)c3C)c2cc1OC [Example 83, 3-(Trifluoromethyl)phenethyl N-{4-[(6,7-dimethoxy-4-quinolyl)oxy]-2,3-dimethylphenyl]carbamate]
399 | 27 | – | – | COc1cc2nccc(Oc3cc(C)c(NC(=O)OCCc4cccc(C(F)(F)F)c4)cc3C)c2cc1OC [Example 84, 3-(Trifluoromethyl)phenethyl N-{4-[(6,7-dimethoxy-4-quinolyl)oxy]-2,5-dimethylphenyl}carbamate]
